Values after ≈ are worked out from the molar mass of the structure shown. Values belong to the compound of their own block, whether it stands above or below them.
Columns and labels:
[1] = system: Escherichia coli; assay: Antibacterial activity against Escherichia coli
[2] = biological target: 5-hydroxytryptamine receptor 2A (Homo sapiens, UniProt P28223); assay: Agonist activity at human 5-HT2A receptor expressed in HEK293 cells incubated for 60 mins by BRET assay
[3] = biological target: Cannabinoid receptor 2 (Homo sapiens, UniProt P34972); assay: Binding affinity to human CB2 receptor assessed as inhibition constant
Sequence of Cannabinoid receptor 2 (P34972 whole entry): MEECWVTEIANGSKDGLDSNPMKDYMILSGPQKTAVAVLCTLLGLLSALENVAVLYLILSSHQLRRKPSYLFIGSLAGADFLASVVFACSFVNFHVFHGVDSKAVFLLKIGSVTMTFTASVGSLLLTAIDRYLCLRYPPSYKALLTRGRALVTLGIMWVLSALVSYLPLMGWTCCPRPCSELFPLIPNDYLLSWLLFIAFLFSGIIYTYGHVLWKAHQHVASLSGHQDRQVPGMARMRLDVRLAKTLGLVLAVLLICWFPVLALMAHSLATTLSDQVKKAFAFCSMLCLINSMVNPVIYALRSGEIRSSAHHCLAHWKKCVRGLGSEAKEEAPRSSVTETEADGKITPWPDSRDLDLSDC

[4] = system: VCaP; assay: Antiproliferative activity against human VCaP cells expressing ERG level assessed as reduction in cell viability incubated for 72 hrs by CCK8 assay
[5] = biological target: Tyrosine-protein kinase JAK2 (Homo sapiens, UniProt O60674); assay: Inhibition of JAK2 (unknown origin) by Z'-LYTE kinase assay
Sequence of Tyrosine-protein kinase JAK2 (O60674 whole entry): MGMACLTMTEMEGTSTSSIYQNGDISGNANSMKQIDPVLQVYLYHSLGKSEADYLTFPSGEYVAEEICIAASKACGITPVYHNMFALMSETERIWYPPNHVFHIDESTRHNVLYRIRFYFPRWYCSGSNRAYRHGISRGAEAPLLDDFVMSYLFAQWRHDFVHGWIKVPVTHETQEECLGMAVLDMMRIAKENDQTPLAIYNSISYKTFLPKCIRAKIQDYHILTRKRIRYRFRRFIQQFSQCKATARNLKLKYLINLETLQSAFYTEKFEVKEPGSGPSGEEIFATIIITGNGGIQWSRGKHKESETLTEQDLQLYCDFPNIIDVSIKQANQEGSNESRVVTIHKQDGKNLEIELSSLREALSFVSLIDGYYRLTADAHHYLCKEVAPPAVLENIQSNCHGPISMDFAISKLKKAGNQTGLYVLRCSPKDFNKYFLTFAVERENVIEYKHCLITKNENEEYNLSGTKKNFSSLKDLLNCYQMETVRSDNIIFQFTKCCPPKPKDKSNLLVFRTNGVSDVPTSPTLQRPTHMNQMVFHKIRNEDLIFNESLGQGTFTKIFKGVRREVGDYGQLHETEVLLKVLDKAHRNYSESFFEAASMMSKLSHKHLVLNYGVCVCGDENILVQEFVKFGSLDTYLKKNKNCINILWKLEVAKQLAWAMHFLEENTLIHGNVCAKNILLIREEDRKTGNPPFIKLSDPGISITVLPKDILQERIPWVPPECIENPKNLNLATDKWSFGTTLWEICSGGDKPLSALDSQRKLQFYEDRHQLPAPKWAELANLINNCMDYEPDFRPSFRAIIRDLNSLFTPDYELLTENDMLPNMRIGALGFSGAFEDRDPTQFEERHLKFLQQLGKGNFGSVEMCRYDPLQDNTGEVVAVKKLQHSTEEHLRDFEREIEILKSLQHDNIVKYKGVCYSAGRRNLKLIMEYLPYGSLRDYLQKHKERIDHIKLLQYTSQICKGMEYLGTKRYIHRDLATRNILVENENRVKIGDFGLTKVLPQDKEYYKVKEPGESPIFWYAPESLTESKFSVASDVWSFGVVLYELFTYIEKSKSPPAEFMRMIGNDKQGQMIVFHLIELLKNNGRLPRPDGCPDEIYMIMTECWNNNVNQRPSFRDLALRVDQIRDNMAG

[6] = biological target: Rho-associated protein kinase 1 (Homo sapiens, UniProt Q13464)
Sequence of Rho-associated protein kinase 1 (Q13464 whole entry, the tested form may be a part): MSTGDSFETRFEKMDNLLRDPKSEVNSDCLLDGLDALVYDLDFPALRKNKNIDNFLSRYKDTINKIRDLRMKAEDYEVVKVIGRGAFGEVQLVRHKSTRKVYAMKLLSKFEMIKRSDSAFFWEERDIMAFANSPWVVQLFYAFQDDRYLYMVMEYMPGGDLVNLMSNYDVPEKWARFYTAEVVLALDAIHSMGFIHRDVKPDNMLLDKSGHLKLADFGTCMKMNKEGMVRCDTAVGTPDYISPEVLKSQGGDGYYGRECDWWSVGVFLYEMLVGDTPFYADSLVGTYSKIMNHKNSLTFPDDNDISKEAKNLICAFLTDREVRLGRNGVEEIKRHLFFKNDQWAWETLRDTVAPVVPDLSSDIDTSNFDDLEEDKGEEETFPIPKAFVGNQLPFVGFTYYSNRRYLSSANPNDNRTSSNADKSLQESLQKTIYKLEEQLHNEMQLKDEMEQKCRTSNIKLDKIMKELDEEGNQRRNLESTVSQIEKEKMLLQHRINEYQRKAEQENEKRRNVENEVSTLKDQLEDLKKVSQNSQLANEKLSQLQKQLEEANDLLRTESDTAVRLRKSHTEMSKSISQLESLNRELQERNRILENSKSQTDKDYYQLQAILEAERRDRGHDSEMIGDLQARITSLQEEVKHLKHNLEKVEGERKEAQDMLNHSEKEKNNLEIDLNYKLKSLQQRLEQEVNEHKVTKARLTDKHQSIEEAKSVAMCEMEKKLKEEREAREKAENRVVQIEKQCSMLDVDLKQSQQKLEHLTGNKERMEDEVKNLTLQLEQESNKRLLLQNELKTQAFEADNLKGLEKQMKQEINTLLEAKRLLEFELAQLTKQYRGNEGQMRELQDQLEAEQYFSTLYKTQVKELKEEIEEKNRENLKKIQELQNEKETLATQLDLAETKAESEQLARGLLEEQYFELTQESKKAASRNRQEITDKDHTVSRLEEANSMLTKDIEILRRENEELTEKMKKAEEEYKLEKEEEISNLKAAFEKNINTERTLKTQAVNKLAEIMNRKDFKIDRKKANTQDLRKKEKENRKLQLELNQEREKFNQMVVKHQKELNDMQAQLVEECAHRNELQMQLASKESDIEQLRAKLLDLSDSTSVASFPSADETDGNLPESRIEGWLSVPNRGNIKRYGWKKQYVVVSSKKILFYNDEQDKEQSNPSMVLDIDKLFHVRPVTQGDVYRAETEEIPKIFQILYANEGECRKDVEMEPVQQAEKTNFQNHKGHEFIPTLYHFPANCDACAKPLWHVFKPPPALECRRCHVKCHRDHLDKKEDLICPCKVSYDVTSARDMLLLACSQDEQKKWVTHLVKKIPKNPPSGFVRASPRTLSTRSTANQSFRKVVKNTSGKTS
Description: Binding affinity to N-terminal GST-tagged human ROCK1 catalytic domain (1 to 477 residues) expressed in Sf21 insect cells assessed as inhibition constant by NanoBRET intracellular kinase assay

[7] = biological target: Epithelial discoidin domain-containing receptor 1 (Homo sapiens, UniProt Q08345)
Sequence of Epithelial discoidin domain-containing receptor 1 (Q08345 whole entry, the tested form may be a part): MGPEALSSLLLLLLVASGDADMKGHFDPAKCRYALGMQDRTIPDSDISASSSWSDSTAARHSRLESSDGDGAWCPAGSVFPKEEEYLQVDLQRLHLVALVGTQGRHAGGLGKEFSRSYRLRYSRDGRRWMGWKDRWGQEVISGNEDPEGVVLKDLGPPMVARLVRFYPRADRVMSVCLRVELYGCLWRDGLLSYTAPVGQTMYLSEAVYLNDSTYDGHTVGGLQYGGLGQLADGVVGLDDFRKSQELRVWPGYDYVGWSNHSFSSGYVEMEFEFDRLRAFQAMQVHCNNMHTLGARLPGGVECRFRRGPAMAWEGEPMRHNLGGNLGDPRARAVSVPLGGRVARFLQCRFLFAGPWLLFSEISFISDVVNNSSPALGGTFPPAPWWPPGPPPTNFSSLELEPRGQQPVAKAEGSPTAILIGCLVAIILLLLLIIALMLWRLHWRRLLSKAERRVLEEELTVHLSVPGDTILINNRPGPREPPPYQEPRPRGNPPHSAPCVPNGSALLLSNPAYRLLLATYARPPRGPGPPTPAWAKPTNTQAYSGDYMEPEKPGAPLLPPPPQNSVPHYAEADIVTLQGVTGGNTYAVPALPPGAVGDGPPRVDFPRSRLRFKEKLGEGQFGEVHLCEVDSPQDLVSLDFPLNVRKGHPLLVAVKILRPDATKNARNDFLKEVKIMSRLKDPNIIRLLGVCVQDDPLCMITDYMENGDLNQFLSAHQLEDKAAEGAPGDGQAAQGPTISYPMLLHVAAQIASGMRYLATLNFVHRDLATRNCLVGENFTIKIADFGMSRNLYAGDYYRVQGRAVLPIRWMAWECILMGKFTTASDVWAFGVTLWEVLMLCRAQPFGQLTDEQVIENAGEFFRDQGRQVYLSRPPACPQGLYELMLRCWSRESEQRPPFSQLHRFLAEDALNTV

[8] = system: MOLT-4; assay: Antiproliferative activity against human MOLT-4 cells assessed as reduction in cell growth incubated for 72 hrs by Cell-titer glo luminescent cell viability assay; conditions: MOLT-4, 72 h
[9] = biological target: T1, Androgen receptor (Homo sapiens, UniProt P10275); assay: Inhibition of full length human Androgen receptor DNA binding domain dimerization
T1 sequence (P10275 whole entry): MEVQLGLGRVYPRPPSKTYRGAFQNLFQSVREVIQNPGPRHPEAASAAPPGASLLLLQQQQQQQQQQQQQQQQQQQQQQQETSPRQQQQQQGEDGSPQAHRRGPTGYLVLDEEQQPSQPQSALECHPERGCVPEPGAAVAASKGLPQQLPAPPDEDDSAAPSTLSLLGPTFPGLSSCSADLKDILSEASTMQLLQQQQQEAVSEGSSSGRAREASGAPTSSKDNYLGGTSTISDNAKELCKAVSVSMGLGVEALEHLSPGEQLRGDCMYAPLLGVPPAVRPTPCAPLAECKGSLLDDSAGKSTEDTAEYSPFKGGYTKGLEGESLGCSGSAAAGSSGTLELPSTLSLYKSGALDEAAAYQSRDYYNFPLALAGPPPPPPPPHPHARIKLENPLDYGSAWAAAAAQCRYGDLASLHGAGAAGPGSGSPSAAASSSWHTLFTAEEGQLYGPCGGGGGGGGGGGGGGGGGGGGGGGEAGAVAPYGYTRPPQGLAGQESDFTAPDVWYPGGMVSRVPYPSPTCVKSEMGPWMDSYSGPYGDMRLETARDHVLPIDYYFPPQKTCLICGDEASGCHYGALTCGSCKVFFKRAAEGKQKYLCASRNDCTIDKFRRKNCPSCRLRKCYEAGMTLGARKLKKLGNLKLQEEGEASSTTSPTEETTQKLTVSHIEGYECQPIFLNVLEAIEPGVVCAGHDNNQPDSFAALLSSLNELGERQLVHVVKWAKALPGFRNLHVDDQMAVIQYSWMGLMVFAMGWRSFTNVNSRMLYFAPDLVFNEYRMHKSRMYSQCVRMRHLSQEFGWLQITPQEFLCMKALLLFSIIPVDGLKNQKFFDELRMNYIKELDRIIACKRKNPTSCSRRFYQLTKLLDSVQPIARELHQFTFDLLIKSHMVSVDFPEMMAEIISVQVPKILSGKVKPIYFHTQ

[10] = Inhibition of Poly-L-Histidine tagged full length recombinant Trypanosoma cruzi Sir2p extracted from Escherichia coli BL21 (DE) using Abz-Gly-Pro-AcetylLys-Ser-Gln-EDDnp peptide as substrate incubated for 30 mins by fluorescence based analysis
[11] = biological target: Myeloid differentiation primary response protein MyD88 (Homo sapiens, UniProt Q99836); assay: Binding affinity to MYD88 Toll/interleukin-1 receptor domain (unknown origin) assessed as dissociation constant by SPR assay
Sequence of Myeloid differentiation primary response protein MyD88 (Q99836 whole entry, the tested form may be a part): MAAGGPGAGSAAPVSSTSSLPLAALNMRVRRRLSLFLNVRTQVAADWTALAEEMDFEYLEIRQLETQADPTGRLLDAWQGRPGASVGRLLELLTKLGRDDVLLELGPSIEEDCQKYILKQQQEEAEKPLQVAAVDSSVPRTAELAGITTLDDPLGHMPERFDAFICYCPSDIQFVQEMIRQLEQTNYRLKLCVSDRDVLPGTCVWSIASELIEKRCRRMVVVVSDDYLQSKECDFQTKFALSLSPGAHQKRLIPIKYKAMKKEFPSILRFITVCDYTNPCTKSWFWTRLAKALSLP

[12] = system: Staphylococcus aureus; assay: microbe, parasite or virus in culture; conditions: ATCC 35556, 24 h
Description: Antibacterial activity against wild type Staphylococcus aureus ATCC 35556 assessed as reduction in bacterial growth incubated for 24 hrs by CLSI protocol based broth micro-dilution method

[13] = system: Staphylococcus aureus; assay: microbe, parasite or virus in culture; conditions: ATCC 43300, 24 h
Description: Antibacterial activity against methicillin-resistant Staphylococcus aureus ATCC 43300 assessed as reduction in bacterial growth incubated for 24 hrs by CLSI protocol based broth micro-dilution method

[14] = biological target: T2, Serine/threonine-protein kinase Sgk3 (Homo sapiens, UniProt Q96BR1); assay: Inhibition of SGK3 (unknown origin)
T2 sequence (Q96BR1 whole entry): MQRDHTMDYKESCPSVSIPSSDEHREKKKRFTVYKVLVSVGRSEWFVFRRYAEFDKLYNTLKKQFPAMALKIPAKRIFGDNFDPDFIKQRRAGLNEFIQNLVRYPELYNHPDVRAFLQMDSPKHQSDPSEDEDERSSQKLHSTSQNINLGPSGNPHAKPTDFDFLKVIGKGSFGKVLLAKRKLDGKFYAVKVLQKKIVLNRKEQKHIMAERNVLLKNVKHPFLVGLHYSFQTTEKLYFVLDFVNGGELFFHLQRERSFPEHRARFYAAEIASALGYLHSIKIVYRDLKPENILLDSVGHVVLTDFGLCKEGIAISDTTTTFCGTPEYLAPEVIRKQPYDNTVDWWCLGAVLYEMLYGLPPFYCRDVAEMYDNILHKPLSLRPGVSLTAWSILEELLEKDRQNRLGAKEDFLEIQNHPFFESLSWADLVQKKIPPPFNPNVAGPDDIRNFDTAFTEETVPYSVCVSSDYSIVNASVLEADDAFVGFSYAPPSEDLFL

[15] = biological target: Speckle-type POZ protein (Homo sapiens, UniProt O43791)
Sequence of Speckle-type POZ protein (O43791 whole entry): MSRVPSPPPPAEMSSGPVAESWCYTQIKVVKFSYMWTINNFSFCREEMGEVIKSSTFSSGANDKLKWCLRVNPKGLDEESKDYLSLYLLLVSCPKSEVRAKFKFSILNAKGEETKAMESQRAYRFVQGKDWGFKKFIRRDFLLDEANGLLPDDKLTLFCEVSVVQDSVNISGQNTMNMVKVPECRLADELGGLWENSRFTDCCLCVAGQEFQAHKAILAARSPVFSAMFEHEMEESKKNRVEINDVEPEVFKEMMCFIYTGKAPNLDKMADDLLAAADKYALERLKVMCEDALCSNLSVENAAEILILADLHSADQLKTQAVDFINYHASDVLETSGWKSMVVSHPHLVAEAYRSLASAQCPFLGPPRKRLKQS

[16] = system: Acinetobacter baumannii; assay: microbe, parasite or virus in culture; conditions: ATCC 17978
Description: Antibacterial activity against Acinetobacter baumannii ATCC 17978

Sequence of 5-hydroxytryptamine receptor 2A (P28223 whole entry): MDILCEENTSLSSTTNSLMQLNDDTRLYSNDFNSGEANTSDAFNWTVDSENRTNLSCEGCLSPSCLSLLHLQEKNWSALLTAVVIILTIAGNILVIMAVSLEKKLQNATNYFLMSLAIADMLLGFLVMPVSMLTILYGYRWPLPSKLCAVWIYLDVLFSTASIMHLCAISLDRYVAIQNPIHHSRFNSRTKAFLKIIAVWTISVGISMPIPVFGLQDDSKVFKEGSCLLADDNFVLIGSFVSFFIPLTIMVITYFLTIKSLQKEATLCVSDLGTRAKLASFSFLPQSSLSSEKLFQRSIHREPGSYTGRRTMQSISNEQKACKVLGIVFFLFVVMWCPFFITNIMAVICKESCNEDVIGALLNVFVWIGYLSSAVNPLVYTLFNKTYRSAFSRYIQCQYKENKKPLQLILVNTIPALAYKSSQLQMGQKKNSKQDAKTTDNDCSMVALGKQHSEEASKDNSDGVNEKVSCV

MIC [1]: 2 µg/mL (≈ 7.65 µM)
Structure (SMILES): Nc1nnc(Sc2ncc([N+](=O)[O-])s2)s1

Structure (SMILES): C[C@@H]1C=C(c2c[nH]c3ncccc23)CN(C)C1
EC50 [2]: 0.11 µM

Ki [3]: 0.0009 µM
Structure (SMILES): COCC(C)(NC(=O)c1ccc(N2CCCCC2)c(S(=O)(=O)N2CCCCC2)c1)C1CC1 (configuration not stated)

IC50 [4]: 2.56 µM
Structure (SMILES): O=C(N/N=C/c1ccc([N+](=O)[O-])o1)c1ccc(O)cc1 [NIFUROXAZIDE]

IC50 [5]: 0.07 µM
Ki [6]: 0.038 µM
IC50 [7]: 0.01 µM
IC50 [8]: 0.116 µM
Structure (SMILES): COCc1cccc(CC(=O)Nc2ccc(-c3cn[nH]c3)cc2)c1

IC50 [9]: 5 µM
Structure (SMILES): CC(O)(CNC(=O)/C=C/c1ccnc2ccccc12)c1ccsc1 (configuration not stated)

IC50 [9]: 2 µM
Structure (SMILES): O=C(NCc1cccc2ccccc12)NCC(O)(c1cccs1)c1cccs1

Structure (SMILES): O=C(NCc1coc(-c2ccccc2)n1)Nc1ccc(-c2noc(C(F)(F)F)n2)cc1
IC50 [10]: 40 µM

Kd [11]: 165 µM
Structure (SMILES): O=C(CN1CCC(CCc2ccccc2)CC1)Nc1n[nH]c2ncccc12

Structure (SMILES): CC1(C)[C@H]2Cc3cc(-c4cc5c(cn4)[C@@H]4C[C@H](C5)C4(C)C)ncc3[C@@H]1C2
MIC [12]: 8 µg/mL (≈ 23.2 µM)
MIC [13]: 8 µg/mL (≈ 23.2 µM)

IC50 [14]: 179 µM
Structure (SMILES): COc1ccc(/C=C/c2[nH]c(=O)[nH]c(=O)c2[N+](=O)[O-])cc1OC

IC50 [15]: 4.51 µM
Structure (SMILES): Cc1nnc(SCC2=C(C(=O)O)N3C(=O)[C@@H](NC(=O)c4ccc(COc5ccccc5Cl)o4)[C@H]3SC2)s1

Structure (SMILES): O=C1Nc2ccccc2C2(CCN(CCc3ccc(C(F)(F)F)cc3)CC2)O1
MIC [16]: 2 µg/mL (≈ 5.12 µM)
